Laboratory results published in patent publication US9504747B2, “Lipids and lipid compositions for the delivery of active agents” (Novartis AG, priority 2013, dated 2016).

Assays:
[1] = pKa measurement of the cationic lipid (TNS fluorescence vs pH); type: physicochemical; conditions: probe TNS (fluorescent probe), Table 4; pKa of the cationic lipid of formula (I)
Experimental: Unless indicated otherwise, all pKa's referred to herein were measured at standard temperature and pressure. Also, unless otherwise indicated, all references to pKa are references to pKa measured using the following technique. 2 mM solution of lipid in ethanol was prepared by weighing the lipid and then dissolving it in ethanol. 0.3 mM solution of fluorescent probe TNS in ethanol:methanol 9:1 was prepared by first making 3 mM solution of TNS in methanol and then diluting to 0.3 mM with ethanol. An aqueous buffer containing 200 mM sodium phosphate dibasic and 100 mM citric acid was prepared. […] Using the Hamilton Microlab Star high throughput liquid handler and Hamilton run control software Software, 7.5 uL of probe/lipid mix were added to 242.5 uL of buffer in a 1 mL 96 well plate (model NUNC 260252, […] Nunc International). This was done with all twelve buffers. After mixing in 1 mL 96 well plate, 100 uL of each probe/lipid/buffer mixture was transferred to a 250 uL black with clear bottom 96 well plate (model COSTAR 3904, Corning). The fluorescence measurements are carried out on the SpectraMax M5 spectrophotometer using software SoftMax pro 5.2 and following parameters: After the measurement, the background fluorescence value of an empty well on the 96 well plate was subtracted from each probe/lipid/buffer mixture. The fluorescence intensity values were then normalized to the value at lowest pH. The normalized fluorescence intensity vs. pH chart was then plotted in the Microsoft Excel software. The twelve points were connected with a smooth line. The point on the line at which the normalized fluorescence intensity was equal to 0.5 was found. […] The pKa determined using this method is precise to about 0.1 pKa units.

[2] = Polydispersity index (PDI) of the lipid nanoparticle (dynamic light scattering); type: physicochemical; conditions: Table 4; FVII siRNA LNP; Chol/DSPC/stealth lipid S010, 45/44/9/2
Description: The lipid nanoparticles (LNPs) were formed by mixing equal volumes of lipids dissolved in alcohol with siRNA dissolved in a citrate buffer by an impinging jet process. […] The siRNA to total lipid ratio is approximately 0.05 (wt/wt). Where a LNP formulation contains four lipid components, the molar ratios correspond to the type of lipid as it appears in the first four columns of the table, in the order that they appear. The ratio of the lipids ranges from 20 to 70 mole percent for the cationic lipid with a target of 40-60, the mole percent of helper lipid ranges from 20 to 70 with a target of 30 to 50, the mole percent of neutral lipid ranges from 0-30, the mole percent of PEG lipid has a range from 1 to 6 with a target of 2 to 5. The concentration of siRNA solution ranges from 0.7 to 1.0 mg/mL with a target of 0.8 to 0.9 mg/mL in a sodium citrate: sodium chloride buffer pH 4-6, with a target of 4.5-5.5. The LNPs are formed by mixing equal volumes of lipid solution in ethanol with siRNA dissolved in a citrate buffer by an impinging jet process through a mixing device with ID ranging from 0.25 to 2.0 mm at a flow rate from 10 to 640 mL/min. The mixed LNP solution is held at room temperature for 0-24 hrs prior to a dilution step. […] The final product is sterile filtered and stored at 4° C. Unless indicated otherwise, all PDIs referred to herein are the PDI of the fully formed nanoparticle, as measured by dynamic light scattering on a Malvern Zetasizer. The nanoparticle sample was diluted in phosphate buffered saline (PBS) so that the count rate was approximately 200-400 kcts. The data is presented in Tables 4 and 5 as a weighted average of the intensity measure.

[3] = tested on: respiratory syncytial virus F protein; assay: Immunization studies: anti-RSV-F titers after liposome-delivered vA317 self-replicating RNA; type: in vivo; conditions: BALB/c mice, liposomes with 0.1 μg vA317 replicon (naked control 1 μg); for anti-RSV-F titer 2wp1 pool 1 / anti-RSV-F titer 2wp1 pool 2: 2 weeks after first dose; for anti-RSV-F titer 2wp2 pool 1 / anti-RSV-F titer 2wp2 pool 2: 2 weeks after second dose; for anti-RSV-F titer 4wp2 pool 1 / anti-RSV-F titer 4wp2 pool 2: 4 weeks after second dose
Experimental: BALB/c were immunized with liposomes comprising DSPC, cholesterol, and various lipids of the invention (or, for comparison, the cationic lipid 1,2-dilinoleyloxy-N,N-dimethyl-3-aminopropane or ‘DLinDMA’). The liposomes encapsulated 0.1 μg of “vA317” self-replicating RNA replicon which encodes respiratory syncytial virus F protein (see WO2012/031043). […] Doses were given either on days 0 & 21 or days 0 & 42. Immune responses were assessed 2 weeks after each dose (2wp1, 2wp2), and in some cases also at 4 weeks after the second dose (4wp2). Four series of experiments were performed, each with its own naked control.

Row | pKa [1] | PDI [2] | SMILES | anti-RSV-F titer 2wp1 pool 1 ([3]; Course A = days 0 & 21) | anti-RSV-F titer 2wp1 pool 2 ([3]; Course A = days 0 & 21) | anti-RSV-F titer 2wp2 pool 1 ([3]; Course A = days 0 & 21) | anti-RSV-F titer 2wp2 pool 2 ([3]; Course A = days 0 & 21) | anti-RSV-F titer 4wp2 pool 1 ([3]; Course A = days 0 & 21) | anti-RSV-F titer 4wp2 pool 2 ([3]; Course A = days 0 & 21) | other results
1 | 6.02 | – | CCCCC/C=C\C/C=C\CCCCCCCCOc1cc(CN(C)C)cc(OCCCCOC(=O)CCC(COC(=O)CCCCC)COC(=O)CCCCC)c1C [Example 104] | – | – | – | – | – | – | –
2 | 5.9 | – | CCCCC/C=C\C/C=C\CCCCCCCC(=O)OCCOCCOc1cc(CN(CC)CC)cc(OCCOCCOC(=O)CCCCCCC/C=C\C/C=C\CCCCC)c1 [Example 58] | – | – | – | – | – | – | –
3 | 6.11 | 0.071 | CCCCCCCC(=O)OCC(COC(=O)CCCCCCC)OC(=O)CCC(=O)OCc1cc(COC(=O)CCC(=O)OC(COC(=O)CCCCCCC)COC(=O)CCCCCCC)cc(CN(C)C)c1 [Example 107] | – | – | – | – | – | – | –
4 | 6.01 | 0.049 | CCCCC/C=C\C/C=C\CCCCCCCCOc1cc(COC(=O)CCN(C)C)cc(OCCCCCCCC/C=C\C/C=C\CCCCC)n1 [Example 31] | – | – | – | – | – | – | –
5 | 5.57 | – | CCCCC/C=C\C/C=C\CCCCCCCC(=O)OCCCCCCOc1cc(CN(C)C)cc(OCCCCCCOC(=O)CCCCCCC/C=C\C/C=C\CCCCC)c1 [Example 45] | – | – | – | – | – | – | –
6 | 5.98 | 0.09 | CCCCC/C=C\C/C=C\CCCCCCCC(=O)OCCCCOc1cc(CN(C)C)cc(OCCCCOC(=O)CC(CCCCCCCC)CCCCCCCC)c1 [Example 109] | – | – | – | – | – | – | –
7 | 6.15 | 0.005 | CCCCCCCCCC(=O)OCCCCCCCC(=O)OCc1cc(COC(=O)CCCCCCCOC(=O)CCCCCCCCC)cc(CN(C)C)c1 [Example 83] | – | – | – | – | – | – | –

Second part, the compound before the results:

Row | SMILES | pKa [1] | PDI [2] | anti-RSV-F titer 2wp1 pool 1 ([3]; Course A = days 0 & 21) | anti-RSV-F titer 2wp1 pool 2 ([3]; Course A = days 0 & 21) | anti-RSV-F titer 2wp2 pool 1 ([3]; Course A = days 0 & 21) | anti-RSV-F titer 2wp2 pool 2 ([3]; Course A = days 0 & 21) | anti-RSV-F titer 4wp2 pool 1 ([3]; Course A = days 0 & 21) | anti-RSV-F titer 4wp2 pool 2 ([3]; Course A = days 0 & 21) | other results
8 | CCCCC/C=C\C/C=C\CCCCCCCCOc1cc(COC(=O)OCCCN(C)C)cc(OCCCCCCCC/C=C\C/C=C\CCCCC)c1 [Example 68] | – | – | 1031 | 494 | 11315 | 7800 | 12963 | 17734 | –
9 | CCCCC/C=C\C/C=C\CCCCCCCCOc1cc(C(=O)OCCCN(C)C)cc(OCCCCCCCC/C=C\C/C=C\CCCCC)n1 [Example 25] | – | – | 1217 | 1883 | 1611 | 1156 | 2850 | 1767 | –
10 | CCCCCCCC/C=C\CCCCCCCCOc1cc(OCCCCCCCC/C=C\CCCCCCCC)cc(C2OCC(COC(=O)CN(C)C)O2)c1 (stereo not drawn) [Example 12] | – | – | – | – | – | – | – | – | anti-RSV-F titer 2wp1 pool 1 ([3]; Course B = days 0 & 42): 88; anti-RSV-F titer 2wp1 pool 2 ([3]; Course B = days 0 & 42): 128; anti-RSV-F titer 2wp2 pool 1 ([3]; Course B = days 0 & 42): 4550; anti-RSV-F titer 2wp2 pool 2 ([3]; Course B = days 0 & 42): 4828; anti-RSV-F titer 4wp2 pool 1 ([3]; Course B = days 0 & 42): 4787; anti-RSV-F titer 4wp2 pool 2 ([3]; Course B = days 0 & 42): 3972
11 | CCCCC/C=C\C/C=C\CCCCCCCC(=O)OCc1cc(COC(=O)CCCCCCC/C=C\C/C=C\CCCCC)cc(COC(=O)CCN(C)C)c1 [Example 29] | – | – | 2101 | 3584 | 12529 | 18669 | 23930 | 37278 | –
12 | CCCCCCCC/C=C\CCCCCCCCOc1cc(OCCCCCCCC/C=C\CCCCCCCC)cc(C2OCC(CN3CCCC3)O2)c1 (stereo not drawn) [Example 9] | – | – | 1832 | 1352 | 29707 | 18788 | – | – | –
13 | CCCCC/C=C\C/C=C\CCCCCCCCNC(=O)c1cc(COC(=O)CCCN(C)C)cc(C(=O)NCCCCCCCC/C=C\C/C=C\CCCCC)c1 [Example 66] | – | – | 75 | 75 | 75 | 75 | 75 | 75 | –
